# Measured values reported in article PMC9405102, “Targeted Modification and Structure-Activity Study of GL-29, an Analogue of the Antimicrobial Peptide Palustrin-2ISb” (Antibiotics, 2022).
# Where a SMILES comes first, the peptide text is derived from it.
# Test system: S. aureus (ATCC CRM 6538)
# Test: SYTOX Green dye uptake membrane permeability assay
# Format: cell-based, Staphylococcus aureus
# Conditions: 4 μM peptide, 2 h
# Description: Bacteria were inoculated into TSB medium (Gram-positive bacteria) or LB medium (Gram-negative bacteria) at 37 °C overnight, and then sub-cultured at 37 °C for about 2.5 h. Subsequently, the cell cultures were centrifuged at 1000× g at 4 °C for 10 min to collect bacteria cells at the bottom. After the cells were washed twice with 5% TSB or 5% LB in 0.85% NaCl solution, they were resuspended with 5% TSB or 5% LB in 0.85% NaCl solution to obtain a cell concentration of 1 × 10^8 CFU /mL by measuring the optical density (OD) value at 590 nm (Gram-positive bacteria: 0.68–0.72, Gram-negative bacteria: 0.65–0.7). The cell suspensions were then mixed with peptides at a range of concentrations, according to the MIC of antimicrobial assays, in a black 96 well plate and incubated for 2 h at 37 °C. After the incubation, the cells were stained with SYTOX^TM Green Nucleic Acid Stain (Thermo Fisher Scientific, Waltham, MA, USA) dissolved in 5% TSB in 0.85% NaCl to a final concentration of 5 μM and placed in a shaking incubator for 5 min avoiding from light. Bacterial cells treated with 16 μM melittin were used as positive control. The fluorescence intensity was measured with a Synergy HT plate reader (BioTek, USA) at excitation and emission wavelengths of 485 and 528 nm, respectively.
structure (smiles),measurement,value
"CC[C@H](C)[C@H](NC(=O)[C@H](CCCCN)NC(=O)[C@@H](NC(=O)[C@H](CO)NC(=O)[C@H](CC(N)=O)NC(=O)[C@H](Cc1c[nH]c2ccccc12)NC(=O)[C@H](CC(C)C)NC(=O)CN)[C@@H](C)CC)C(=O)N[C@@H](C)C(=O)NCC(=O)N[C@@H](CCCCN)C(=O)N[C@@H](CCCCN)C(=O)N[C@@H](CC(C)C)C(=O)N[C@@H](Cc1ccccc1)C(=O)N[C@H](C(=O)N[C@@H](CC(N)=O)C(=O)N[C@H](C(=O)N[C@@H](CC(C)C)C(=O)N[C@@H](CC(=O)O)C(=O)N[C@@H](CCCCN)C(=O)N[C@H](C(=O)N[C@@H](CCCNC(=N)N)C(=O)N[C@H]1CSSC[C@@H](C(=O)O)NC(=O)CNC(=O)CNC(=O)[C@H](C)NC(=O)[C@H](C(C)C)NC(=O)[C@H](CCCCN)NC1=O)[C@@H](C)CC)C(C)C)C(C)C [GL-29] (HELM PEPTIDE1{G.L.W.N.S.I.K.I.A.G.K.K.L.F.V.N.V.L.D.K.I.R.C.K.V.A.G.G.C}$PEPTIDE1,PEPTIDE1,23:R3-29:R3$$$V2.0; N-terminus and C-terminus assumed; bridges inferred)",membrane permeabilisation (SYTOX Green uptake),100%
